Reference: patent US20170096629A1, “FILTRATION DEVICE AND SYSTEM” (Universite Technologie de Compiegne - UTC, priority 2009, published 2017)

Assay: diffusion coefficient of molecules through a filtration membrane, co-current filtration system, regression of analytic model
Format: physicochemical
Conditions: least-squares regression of analytic model on concentration ratio versus time
Description: Such systems may also be used for characterizing a filtration membrane 130. For example, it is possible to evaluate a diffusion coefficient of a molecule for a given membrane 130 from a physical model and measurements of concentration of the molecule in the first chamber 110 and/or the second chamber 120 versus time. The co-current system may be used for calibrating the model and estimating the diffiusion coefficient, and the countercurrent system may be used for checking the diffusion coefficient or vice versa.
In particular, the applicant modeled the time-dependent change of the concentration in the first chamber 110, in the case when a fluid to be filtered circulates in the second chamber 120, with the following equations: • in the case of a co-current flow (like in FIG. 9): […]
and • C1(t) represents the concentration in the first chamber 110 as a function of time t, • L represents the (common) length of the first and second chambers 110, 120, • b represents the (common) width of the first and second chambers 110, 120, • Qf represents the filtration flow rate, • V1 represents the volume of the first chamber 110, • V2 represents the volume of the second chamber 120, • C1o represents the initial concentration in the first chamber 110, • C1∞ represents the equilibrium concentration in the first chamber 110, • Dm represents the diffusion coefficient of the molecule to be filtered for the membrane 130, and • δ represents the thickness of the membrane.
By means of these models, it is possible to determine the values of the diffusion coefficient Dm of the molecules tested for a given membrane 130. For this, for example it is possible to operate in the co-current mode and measure the disappearance of the molecule in the second chamber 120 (and therefore its appearance in the first chamber 110).
In FIGS. 11 and 12 the change in the concentration-over-initial-concentration-in-the-second-chamber 120 ratio is illustrated versus time for given experimental conditions, for urea (FIG. 11) and vitamin B12 (FIG. 12) respectively, with several types of membrane. Moreover, the applicant has also determined this ratio for albumin (graph not shown).
The experimental results are illustrated, for an experiment with a membrane of high porosity (of the 8F type) by icons □, Δ, and for an experiment with a membrane of low porosity (of the 1 FPH type) by icons: *, ◯. A regression of the analytic model is then made for example with a minimization by least squares, in which it is possible to obtain experimentally the diffusion coefficients in (m^2/s) listed in the following table: […]

diffusion coefficient Dm (membrane 1 FPH (low porosity)) | diffusion coefficient Dm (membrane 8F (high porosity)) | Molecule
4 × 10^−13 m^2/s | 6 × 10^−12 m^2/s | vitamin B12
2 × 10^−12 m^2/s | 2 × 10^−11 m^2/s | NC(N)=O [Urea, urea]

Molecule | diffusion coefficient Dm (membrane 1 FPH (low porosity)) | diffusion coefficient Dm (membrane 8F (high porosity))
albumin | 9 × 10^−14 m^2/s | 2 × 10^−13 m^2/s
